# Legend:
# [1] = In vivo inhibition of DGAT2 in sucrose diet fed Sprague-Dawley rat assessed as reduction in triglyceride level at 90 mg/kg, po administered as single dose and measured after 2 hrs relative to control; type: functional; design: scale not given: the % may be the effect or the level left
# [2] = Drug metabolism in rat hepatocytes assessed as O-deethylation mediated pyridin-3-ol mediated metabolite formation; type: ADME, cell-based, Hepatocyte
# [3] = biological target: Voltage-gated inwardly rectifying potassium channel KCNH2 (Homo sapiens, UniProt Q12809); assay: Inhibition of hERG by patch-clamp method; type: toxicity
# [4] = Drug metabolism in cryopreserved human hepatocytes assessed as hydrolytic cleavage of amide bond mediated metabolite formation at 10 uM measured for 240 mins by HPLC-UV-MS analysis; type: ADME, cell-based, Hepatocyte; settings: 4 h
# [5] = Plasma protein binding in cynomolgus monkey assessed as unbound fraction ratio at 2 uM; type: ADME, cell-free, Macaca fascicularis
# [6] = biological target: T1, Diacylglycerol O-acyltransferase 1 (Homo sapiens, UniProt O75907); assay: Inhibition of human DGAT1 using [1-14C]decanoyl-CoA and 1,2-didecanoyl-sn-glycerol as substrates assessed as incorporation of [1-14C]decanoyl […] preincubated for 30 mins followed by substrate addition and measured after 30 to 90 mins by scintillation counting method
# T1 sequence (O75907 whole entry): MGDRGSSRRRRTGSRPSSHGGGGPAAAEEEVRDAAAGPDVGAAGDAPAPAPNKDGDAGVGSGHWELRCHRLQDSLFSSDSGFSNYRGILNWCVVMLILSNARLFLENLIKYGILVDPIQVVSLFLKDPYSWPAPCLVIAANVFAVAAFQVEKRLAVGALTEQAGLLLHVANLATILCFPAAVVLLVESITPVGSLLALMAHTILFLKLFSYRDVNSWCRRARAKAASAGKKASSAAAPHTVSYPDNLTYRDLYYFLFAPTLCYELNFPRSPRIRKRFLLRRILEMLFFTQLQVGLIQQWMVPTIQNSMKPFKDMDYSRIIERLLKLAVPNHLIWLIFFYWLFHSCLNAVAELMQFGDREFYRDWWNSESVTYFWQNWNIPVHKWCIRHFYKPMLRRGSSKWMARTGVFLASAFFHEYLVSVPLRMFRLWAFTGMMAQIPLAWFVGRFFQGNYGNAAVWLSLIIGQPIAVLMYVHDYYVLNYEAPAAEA
# [7] = Drug metabolism in cryopreserved human hepatocytes assessed as O-deethylation mediated pyridin-3-ol metabolite formation at 10 uM measured for 240 mins by HPLC-UV-MS analysis; type: ADME, cell-based, Hepatocyte; settings: 4 h
# [8] = Plasma protein binding in rat assessed as unbound fraction ratio at 2 uM; type: ADME, cell-free
# Cytochrome P450 1A2 = biological target: T2, Cytochrome P450 1A2 (Homo sapiens, UniProt P05177); assay: Reversible inhibition of CYP1A2 in pooled human liver microsomes using […] as substrate incubated for 20 mins in presence of NADPH by HPLC-MS/MS analysis; type: ADME, Microsome
# T2 sequence (P05177 whole entry): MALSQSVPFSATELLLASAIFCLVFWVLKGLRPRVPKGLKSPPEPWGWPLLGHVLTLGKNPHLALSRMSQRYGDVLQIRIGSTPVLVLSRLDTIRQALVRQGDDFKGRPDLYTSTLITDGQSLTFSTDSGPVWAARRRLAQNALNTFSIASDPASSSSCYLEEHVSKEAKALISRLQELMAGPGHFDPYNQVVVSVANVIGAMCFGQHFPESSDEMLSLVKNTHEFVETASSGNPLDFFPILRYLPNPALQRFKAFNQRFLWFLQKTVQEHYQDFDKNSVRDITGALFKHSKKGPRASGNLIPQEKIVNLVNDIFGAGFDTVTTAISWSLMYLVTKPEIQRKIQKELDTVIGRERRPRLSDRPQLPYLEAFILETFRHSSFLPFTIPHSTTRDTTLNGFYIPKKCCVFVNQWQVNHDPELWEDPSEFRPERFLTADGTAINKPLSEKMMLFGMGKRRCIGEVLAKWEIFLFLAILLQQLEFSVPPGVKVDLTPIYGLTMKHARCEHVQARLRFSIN
# Cytochrome P450 2C8 = biological target: T3, Cytochrome P450 2C8 (Homo sapiens, UniProt P10632); assay: Reversible inhibition of CYP2C8 in pooled human liver microsomes using desethylamodiaquine as substrate incubated for 10 mins in presence of NADPH by HPLC-MS/MS analysis; type: ADME, Microsome
# T3 sequence (P10632 whole entry): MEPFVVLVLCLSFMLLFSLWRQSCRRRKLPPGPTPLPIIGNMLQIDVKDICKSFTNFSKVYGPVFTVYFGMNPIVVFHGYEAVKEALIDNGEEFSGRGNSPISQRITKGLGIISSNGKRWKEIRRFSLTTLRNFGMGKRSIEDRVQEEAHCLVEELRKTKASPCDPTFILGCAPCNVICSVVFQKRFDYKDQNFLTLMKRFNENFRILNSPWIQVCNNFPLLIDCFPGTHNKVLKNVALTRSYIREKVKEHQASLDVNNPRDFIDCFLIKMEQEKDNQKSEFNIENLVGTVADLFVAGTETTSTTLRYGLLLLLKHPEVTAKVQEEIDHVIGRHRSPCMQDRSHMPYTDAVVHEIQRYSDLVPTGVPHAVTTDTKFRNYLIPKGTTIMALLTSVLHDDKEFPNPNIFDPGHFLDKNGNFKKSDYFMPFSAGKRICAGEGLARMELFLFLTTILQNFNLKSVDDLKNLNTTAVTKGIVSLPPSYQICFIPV
# [9] = Apparent permeability in MDCK-II cells; type: ADME, cell-based, Canis lupus familiaris; settings: dog, MDCK; read-out: Papp
# [10] = Drug metabolism in rat hepatocytes assessed as hydrolytic cleavage of amide bond mediated metabolite formation; type: ADME, cell-based, Hepatocyte
# [11] = Half life in Wistar Han rat at 1 mg/kg, iv; type: ADME, organism-based; settings: in vivo
# [12] = In vivo inhibition of DGAT2 in high fat/high cholesterol diet fed Sprague-Dawley rat model assessed as reduction in plasma triglyceride level at 90 mg/kg, po administered twice daily for 7 days starting from day 14 post diet and measured 2 hrs post last dose relative to control; type: functional; design: scale not given: the % may be the effect or the level left; settings: time 7 day
# [13] = Inhibition of [14C]-glycerol incorporation into triglycerides in monkey primary hepatocytes; type: functional, cell-based, Macaca mulatta; settings: hepatocyte
# [14] = Toxicity in rat assessed as development-limiting toxicity; settings: in vivo
# [15] = Half life in cynomolgus monkey at 5 mg/kg, po; type: ADME, organism-based, Macaca fascicularis; settings: in vivo
# [16] = Oral bioavailability in Wistar Han rat at 5 mg/kg; type: ADME, organism-based; settings: in vivo
# [17] = Drug metabolism in cryopreserved human hepatocytes assessed as O-dearylation mediated oxidative metabolite formation at 10 uM measured for 240 mins by HPLC-UV-MS analysis; type: ADME, cell-based, Hepatocyte; settings: 4 h
# [18] = Inhibition of [14C]-glycerol incorporation into triglycerides in rat primary hepatocytes; type: functional, cell-based; settings: hepatocyte
# [19] = Cardiotoxicity in non-human primates assessed as development-limiting toxicity
# Cytochrome P450 2D6 = Cytochrome P450 2D6 (Homo sapiens, UniProt P10635); assay: Reversible inhibition of CYP2D6 in pooled human liver microsomes using dextrorphan as substrate incubated for 14 mins in presence of NADPH by HPLC-MS/MS analysis; type: ADME, Microsome
# [20] = Drug metabolism in monkey hepatocytes assessed as hydrolytic cleavage of amide bond mediated metabolite formation; type: ADME, cell-based, Macaca mulatta, Hepatocyte; settings: rhesus monkey
# [21] = Drug metabolism in cryopreserved human hepatocytes assessed as oxidation of THF ring mediated metabolite formation at 10 uM measured for 240 mins by HPLC-UV-MS analysis; type: ADME, cell-based, Hepatocyte; settings: 4 h
# [22] = Volume of distribution at steady state in cynomolgus monkey at 1 mg/kg, iv; type: ADME, organism-based, Macaca fascicularis; settings: in vivo, read-out: Vdss
# Sequence of Cytochrome P450 2D6 (P10635 whole entry): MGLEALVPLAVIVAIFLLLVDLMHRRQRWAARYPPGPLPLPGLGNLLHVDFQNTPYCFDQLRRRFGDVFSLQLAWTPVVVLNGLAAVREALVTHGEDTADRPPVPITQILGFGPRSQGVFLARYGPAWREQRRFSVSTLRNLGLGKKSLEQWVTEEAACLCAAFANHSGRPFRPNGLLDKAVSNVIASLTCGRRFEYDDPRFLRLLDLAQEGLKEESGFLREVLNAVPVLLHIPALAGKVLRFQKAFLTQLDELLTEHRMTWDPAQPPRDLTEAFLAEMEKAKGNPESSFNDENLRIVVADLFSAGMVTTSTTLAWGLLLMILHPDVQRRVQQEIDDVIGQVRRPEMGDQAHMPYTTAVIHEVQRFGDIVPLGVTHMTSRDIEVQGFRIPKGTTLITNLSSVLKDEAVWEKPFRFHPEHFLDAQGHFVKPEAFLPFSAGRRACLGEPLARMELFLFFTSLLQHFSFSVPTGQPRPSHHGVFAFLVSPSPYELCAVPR
# Sequence of Voltage-gated inwardly rectifying potassium channel KCNH2 (Q12809 whole entry): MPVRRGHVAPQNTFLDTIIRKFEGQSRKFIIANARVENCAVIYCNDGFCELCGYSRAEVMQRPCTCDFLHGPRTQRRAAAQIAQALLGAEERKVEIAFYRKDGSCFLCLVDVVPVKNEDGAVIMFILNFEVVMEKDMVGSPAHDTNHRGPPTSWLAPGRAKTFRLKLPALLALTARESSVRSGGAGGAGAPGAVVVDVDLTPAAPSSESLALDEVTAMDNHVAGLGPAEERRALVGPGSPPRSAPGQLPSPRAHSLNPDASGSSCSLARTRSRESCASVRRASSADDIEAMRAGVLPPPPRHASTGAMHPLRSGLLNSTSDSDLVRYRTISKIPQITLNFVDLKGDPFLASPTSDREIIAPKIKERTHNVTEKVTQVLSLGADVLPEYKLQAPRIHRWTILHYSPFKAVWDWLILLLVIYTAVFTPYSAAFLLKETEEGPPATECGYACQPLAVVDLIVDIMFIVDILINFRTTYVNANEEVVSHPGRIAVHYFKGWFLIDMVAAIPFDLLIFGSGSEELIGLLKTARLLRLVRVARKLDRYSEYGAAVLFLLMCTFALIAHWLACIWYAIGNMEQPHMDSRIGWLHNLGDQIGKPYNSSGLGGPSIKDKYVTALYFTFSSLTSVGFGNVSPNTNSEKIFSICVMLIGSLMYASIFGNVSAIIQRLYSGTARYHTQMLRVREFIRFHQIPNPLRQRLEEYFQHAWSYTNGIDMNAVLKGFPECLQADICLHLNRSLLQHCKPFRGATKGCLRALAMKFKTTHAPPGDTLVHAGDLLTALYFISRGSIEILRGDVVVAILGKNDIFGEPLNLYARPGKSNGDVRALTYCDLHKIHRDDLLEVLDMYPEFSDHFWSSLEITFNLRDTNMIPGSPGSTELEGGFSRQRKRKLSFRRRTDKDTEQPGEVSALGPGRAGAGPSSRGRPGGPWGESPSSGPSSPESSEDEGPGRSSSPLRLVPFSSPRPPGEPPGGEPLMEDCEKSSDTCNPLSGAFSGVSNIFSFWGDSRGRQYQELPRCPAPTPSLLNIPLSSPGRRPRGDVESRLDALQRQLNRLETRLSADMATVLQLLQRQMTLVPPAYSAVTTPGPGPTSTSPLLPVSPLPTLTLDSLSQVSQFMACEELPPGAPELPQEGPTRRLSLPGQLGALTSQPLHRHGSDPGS
structure (smiles),measurement,setting,value
CCOc1cccnc1Oc1cncc(-c2ncc(C(=O)N[C@H]3CCOC3)cn2)c1 [PF-06865571],Activity,[1],76%
same,Drug metabolism,[2],Metabolite_Detected
same,IC50,[3],> 100 µM
same,Drug metabolism,[4],Metabolite_Detected
same,Ratio,[5],0.36
same,IC50,[6],> 50 µM
same,Drug metabolism,[7],Metabolite_Detected
same,Ratio,[8],0.213
same,IC50,Cytochrome P450 1A2,> 100 µM
same,IC50,Cytochrome P450 2C8,> 100 µM
same,Papp,[9],19 ×10⁻⁶ cm/s
same,Drug metabolism,[10],Metabolite_Detected
same,half-life,[11],0.3 h
same,Activity,[12],70%
same,IC50,[13],0.00213 µM
same,Activity,[14],Non-Toxic
same,half-life,[15],4 h
same,bioavailability,[16],31%
same,Drug metabolism,[17],Metabolite_Detected
same,IC50,[18],0.00602 µM
same,Activity,[19],Non-Toxic
same,IC50,Cytochrome P450 2D6,> 100 µM
same,Drug metabolism,[20],Metabolite_Detected
same,Drug metabolism,[21],Metabolite_Detected
same,Vd,[22],0.7 L/kg

# Source: ChEMBL document CHEMBL5096227, “Discovery of Ervogastat (PF-06865571): A Potent and Selective Inhibitor of Diacylglycerol Acyltransferase 2 for the Treatment of Non-alcoholic Steatohepatitis” (J Med Chem, 2022)
